One experiment has as its target T1, c-kit mutant D816V (Homo sapiens, UniProt P10721, D816V/DEL694-753).
T1 construct: residues 551-934, kinase insertion domain residues 694-753 deleted; 6x-histidine (N); made in house; host or cells: E. coli Arctic Express (DE3) RIL (Stratagene)
In words: c-Kit mutant D816V biochemical assay, AlphaScreen. Particulars: c-kit D816V biochemical inhibitory activity; read-out: Biochemical activity (IC50 μM) Kit D816V. The method, boiled down:
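Purified His-tagged c-Kit D816V (E. coli-expressed) assayed in 25 mM HEPES pH 7.2 with Mg/Mn, 5% DMSO and 10 μM ATP, 30 min at room temperature, 8-point 1:3 dilutions. Phosphorylation detected by AlphaScreen with streptavidin donor and PY20 acceptor beads; IC50 from signal versus concentration.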
For orientation: Bead proximity is the source of the signal in Alpha formats.

A further experiment concerns the target T2, c-kit kinase (Homo sapiens, UniProt P10721).
T2 construct: The c-kit (or kinase domain thereof) is an active kinase in AlphaScreen; poly-Histidine tag (in-house protein only) (cleaved yes); host or cells: E. coli BL21(DE3)RIL, co-expressed with PTP1B
The experiment in a line: c-Kit biochemical assay, AlphaScreen, 10 μM ATP. The settings on record: c-kit biochemical inhibitory activity; read-out: Biochemical activity (IC50 μM) Kit. The method, boiled down: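 His-tagged c-Kit expressed in E. coli with co-expressed PTP1B (dephosphorylated), tag removed; 0.1 ng per reaction with biotinylated-peptide substrate in 50 mM HEPES pH 7.2, 5 mM MgCl2, 5 mM MnCl2, 5% DMSO, 10 μM ATP, 1 h at room temperature. Phosphorylation detected by AlphaScreen (streptavidin donor, PY20 acceptor beads); IC50 from 8-point 1:3 dilution series.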

T1 sequence (P10721 with tags, fused parts or gaps DEL694-753/D816V): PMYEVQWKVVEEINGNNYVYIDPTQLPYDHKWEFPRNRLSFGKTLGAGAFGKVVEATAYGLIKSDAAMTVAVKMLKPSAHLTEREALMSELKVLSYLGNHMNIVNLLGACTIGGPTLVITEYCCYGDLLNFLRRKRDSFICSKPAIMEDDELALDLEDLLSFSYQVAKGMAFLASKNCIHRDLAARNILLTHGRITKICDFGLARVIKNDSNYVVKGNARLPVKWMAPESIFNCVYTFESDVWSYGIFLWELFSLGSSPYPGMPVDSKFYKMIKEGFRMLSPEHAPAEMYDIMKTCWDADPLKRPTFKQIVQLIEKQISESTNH
T2 sequence (P10721 26-976): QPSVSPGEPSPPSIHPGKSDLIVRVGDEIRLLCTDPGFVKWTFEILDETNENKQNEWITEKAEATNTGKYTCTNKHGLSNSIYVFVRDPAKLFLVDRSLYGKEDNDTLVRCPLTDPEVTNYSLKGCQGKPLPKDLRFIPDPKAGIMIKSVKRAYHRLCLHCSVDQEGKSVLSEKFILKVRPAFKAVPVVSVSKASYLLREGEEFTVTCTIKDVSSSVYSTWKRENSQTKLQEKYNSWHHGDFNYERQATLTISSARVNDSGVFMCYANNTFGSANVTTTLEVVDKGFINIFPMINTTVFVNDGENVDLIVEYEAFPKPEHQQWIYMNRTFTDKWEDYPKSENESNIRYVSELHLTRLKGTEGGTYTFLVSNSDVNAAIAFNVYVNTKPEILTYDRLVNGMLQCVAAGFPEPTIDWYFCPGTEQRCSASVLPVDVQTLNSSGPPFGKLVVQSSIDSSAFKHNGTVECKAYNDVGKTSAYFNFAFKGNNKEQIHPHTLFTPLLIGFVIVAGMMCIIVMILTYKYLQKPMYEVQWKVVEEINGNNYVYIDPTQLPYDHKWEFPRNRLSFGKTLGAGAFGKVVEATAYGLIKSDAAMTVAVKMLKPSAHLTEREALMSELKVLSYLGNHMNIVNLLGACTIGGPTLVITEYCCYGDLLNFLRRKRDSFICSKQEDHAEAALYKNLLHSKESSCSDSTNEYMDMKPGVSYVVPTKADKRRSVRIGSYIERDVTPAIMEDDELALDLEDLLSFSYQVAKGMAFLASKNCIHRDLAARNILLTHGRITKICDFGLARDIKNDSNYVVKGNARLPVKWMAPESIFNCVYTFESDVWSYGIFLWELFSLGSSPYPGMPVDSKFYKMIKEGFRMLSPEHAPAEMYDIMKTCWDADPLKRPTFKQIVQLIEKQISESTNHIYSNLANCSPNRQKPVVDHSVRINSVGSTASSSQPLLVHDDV

One may read the IC50 as the concentration needed to halve the response being measured. With `Cc1cc2c(-c3ccc(NS(=O)(=O)c4ccc(Cl)cc4F)c(F)c3)ncnc2[nH]1` [P-0361, 4-chloro-2-fluoro-N-[2-fluoro-4-(6-methyl-7H-pyrrolo[2,3-d]pyrimidin-4-yl)phenyl]benzenesulfonamide], the 50% inhibitory concentration (IC50) on c-kit mutant D816V fell in the range of 1 to 10 µM; at c-kit kinase, 0.0001 to 1 µM.

For the molecule `Cc1cc2c(-c3ccc(NS(=O)(=O)c4ccc(F)cc4)cc3F)ncnc2[nH]1` [P-0362, 4-fluoro-N-[3-fluoro-4-(6-methyl-7H-pyrrolo[2,3-d]pyrimidin-4-yl)phenyl]benzenesulfonamide], the concentration for half-maximal inhibition (IC50) lay in the range of 0.0001 to 1 µM at c-kit mutant D816V and 1 to 10 µM on c-kit kinase.

Regarding `COc1ccc(S(=O)(=O)Nc2ccc(-c3ncnc4[nH]c(C)cc34)c(F)c2)cc1` [P-0363, N-[3-fluoro-4-(6-methyl-7H-pyrrolo[2,3-d]pyrimidin-4-yl)phenyl]-4-methoxy-benzenesulfonamide], the IC50 at c-kit mutant D816V and on c-kit kinase was 1 to 10 µM in each case.

`Cc1cc2c(-c3ccc(NS(=O)(=O)c4cccc(Cl)c4F)cc3F)ncnc2[nH]1` [P-0364, 3-chloro-2-fluoro-N-[3-fluoro-4-(6-methyl-7H-pyrrolo[2,3-d]pyrimidin-4-yl)phenyl]benzenesulfonamide]: the IC50 on c-kit mutant D816V and on c-kit kinase was 10 to 200 µM each time.

Turning to `Cc1cc2c(-c3ccc(NS(=O)(=O)c4ccc(C)c(F)c4)cc3F)ncnc2[nH]1` [P-0365, 3-fluoro-N-[3-fluoro-4-(6-methyl-7H-pyrrolo[2,3-d]pyrimidin-4-yl)phenyl]-4-methyl-benzenesulfonamide], the IC50 was 1 to 10 µM at c-kit mutant D816V and 10 to 200 µM at c-kit kinase.

`Cc1cc2c(-c3ccc(NS(=O)(=O)c4ccc(OC(F)F)cc4)cc3F)ncnc2[nH]1` [P-0366, 4-(difluoromethoxy)-N-[3-fluoro-4-(6-methyl-7H-pyrrolo[2,3-d]pyrimidin-4-yl)phenyl]benzenesulfonamide]: the IC50 at c-kit mutant D816V and on c-kit kinase was 1 to 10 µM each time.

With `[2H]C([2H])([2H])S(=O)(=O)Nc1ccc(-c2ncnc3[nH]c(-c4ccc(F)cc4)cc23)cc1F` [P-0367, 1,1,1-trideuterio-N-[2-fluoro-4-[6-(4-fluorophenyl)-7H-pyrrolo[2,3-d]pyrimidin-4-yl]phenyl]methanesulfonamide], the IC50 at c-kit mutant D816V lay within 0.0001 to 1 µM; on c-kit kinase it was 10 to 200 µM.

Take `[2H]C([2H])([2H])S(=O)(=O)Nc1ccc(-c2ncnc3[nH]c(-c4ccc(F)cc4)cc23)c(F)c1` [P-0368, 1,1,1-trideuterio-N-[3-fluoro-4-[6-(4-fluorophenyl)-7H-pyrrolo[2,3-d]pyrimidin-4-yl]phenyl]methanesulfonamide]: the IC50 at c-kit mutant D816V and on c-kit kinase was 0.0001 to 1 µM in each case.

Consider `O=S(=O)(NCC1CC1)c1ccc(-c2ncnc3[nH]c(-c4ccc(F)cc4)cc23)c(F)c1` [P-0369, N-(cyclopropylmethyl)-3-fluoro-4-[6-(4-fluorophenyl)-7H-pyrrolo[2,3-d]pyrimidin-4-yl]benzenesulfonamide], for which the IC50 on c-kit mutant D816V lay in the range of 1 to 10 µM; on c-kit kinase, 10 to 200 µM.

For `Cc1cc2c(-c3ccc(NS(C)(=O)=O)cc3)ncnc2[nH]1` [P-0379, N-[4-(6-methyl-7H-pyrrolo[2,3-d]pyrimidin-4-yl)phenyl]methanesulfonamide], the 50% inhibitory concentration (IC50) on c-kit mutant D816V was in the range of 1 to 10 µM; at c-kit kinase it was 10 to 200 µM.

As for `CCS(=O)(=O)Nc1ccc(-c2ncnc3[nH]c(-c4ccc(F)cc4)cc23)c(F)c1` [P-0381, N-[3-fluoro-4-[6-(4-fluorophenyl)-7H-pyrrolo[2,3-d]pyrimidin-4-yl]phenyl]ethanesulfonamide], the IC50 at c-kit mutant D816V and at c-kit kinase was 0.0001 to 1 µM each time.

Regarding `CS(=O)(=O)Nc1ccc(-c2cc3c(-c4ccc(NS(C)(=O)=O)cc4F)ncnc3[nH]2)c(F)c1` [P-0382, N-[3-fluoro-4-[4-[2-fluoro-4-(methanesulfonamido)phenyl]-7H-pyrrolo[2,3-d]pyrimidin-6-yl]phenyl]methanesulfonamide], the 50% inhibitory concentration (IC50) at c-kit mutant D816V and at c-kit kinase was 0.0001 to 1 µM each time.

These data come from US10227357B2, “Compounds and methods for kinase modulation, and indications therefor” (Plexxikon Inc., priority 2012, dated 2019).
